CSCCC(NC(C)=O)C(=O)O (racemic)
solubility (mole fraction)
Conditions | 283.15 K | 293.15 K | 303.15 K | 313.15 K | 323.15 K
in 1,4-dioxane | 0.0227 | 0.0428 | 0.073 | 0.108 | 0.167
in 2-butanone | 0.00843 | 0.0131 | 0.0207 | 0.0327 | 0.0568
in acetone | 0.0138 | 0.0215 | 0.037 | 0.0587 | 0.0959
in acetonitrile | 0.00292 | 0.00491 | 0.00877 | 0.016 | 0.0326
in dichloromethane | 0.00024 | 0.00036 | 0.00052 | 0.0007 | 0.00093
in ethanol | 0.0453 | 0.0626 | 0.0954 | 0.135 | 0.184
in ethyl acetate | 0.00265 | 0.00429 | 0.00641 | 0.00936 | 0.0153
in isobutanol | 0.0229 | 0.0345 | 0.0531 | 0.0779 | 0.114
in isopropanol | 0.029 | 0.0436 | 0.066 | 0.0984 | 0.14
in methanol | 0.0794 | 0.105 | 0.141 | 0.187 | 0.262
in methyl acetate | 0.00352 | 0.00525 | 0.0084 | 0.0139 | 0.0243
in n-butanol | 0.0247 | 0.0393 | 0.0591 | 0.0888 | 0.127
in n-pentanol | 0.0215 | 0.0309 | 0.0465 | 0.0684 | 0.103
in n-propanol | 0.031 | 0.0511 | 0.077 | 0.115 | 0.15
in sec-butanol | 0.0236 | 0.0375 | 0.0568 | 0.0839 | 0.121
in water | 0.00589 | 0.008 | 0.0136 | 0.0231 | 0.0543

— BigSolDB 2.1
